Measurements as given in publication PMC11968843, “Sulphostin-inspired N-phosphonopiperidones as selective covalent DPP8 and DPP9 inhibitors” (Nature Communications, 2025).

Experiments:
Assay in all cases: Competitive ABPP / direct target identification with alkyne probe 9 in HEK293 cell lysates
Type in all cases: binding, H. sapiens
[1] = target: T1, HEK293 cell lysates (proteome-wide targets of probe 9) (Homo sapiens, UniProt P83731); settings: protein RPL24
T1 construct: endogenous in cells; host or cells: HEK293 cell lysate

[2] = target: T2, HEK293 cell lysates (proteome-wide targets of probe 9) (Homo sapiens, UniProt P22314); settings: protein UBA1
T2 construct: endogenous in cells; host or cells: HEK293 cell lysate

[3] = target: T3, HEK293 cell lysates (proteome-wide targets of probe 9) (Homo sapiens, UniProt P10599); settings: protein TXN
T3 construct: endogenous in cells; host or cells: HEK293 cell lysate

[4] = target: T4, HEK293 cell lysates (proteome-wide targets of probe 9) (Homo sapiens, UniProt P05455); settings: protein SSB
T4 construct: endogenous in cells; host or cells: HEK293 cell lysate

[5] = target: T5, HEK293 cell lysates (proteome-wide targets of probe 9) (Homo sapiens, UniProt P07814); settings: protein EPRS
T5 construct: endogenous in cells; host or cells: HEK293 cell lysate

[6] = target: T6, HEK293 cell lysates (proteome-wide targets of probe 9) (Homo sapiens, UniProt P00558); settings: protein PGK1
T6 construct: endogenous in cells; host or cells: HEK293 cell lysate

[7] = target: T7, HEK293 cell lysates (proteome-wide targets of probe 9) (Homo sapiens, UniProt P14618); settings: protein PKM
T7 construct: endogenous in cells; host or cells: HEK293 cell lysate

[8] = target: T8, HEK293 cell lysates (proteome-wide targets of probe 9) (Homo sapiens, UniProt Q14103); settings: protein HNRNPD
T8 construct: endogenous in cells; host or cells: HEK293 cell lysate

[9] = target: T9, HEK293 cell lysates (proteome-wide targets of probe 9) (Homo sapiens, UniProt P63104); settings: protein YWHAZ
T9 construct: endogenous in cells; host or cells: HEK293 cell lysate

[10] = target: T10, HEK293 cell lysates (proteome-wide targets of probe 9) (Homo sapiens, UniProt P26641); settings: protein EEF1G
T10 construct: endogenous in cells; host or cells: HEK293 cell lysate

[11] = target: T11, HEK293 cell lysates (proteome-wide targets of probe 9) (Homo sapiens, UniProt P53396); settings: protein ACLY
T11 construct: endogenous in cells; host or cells: HEK293 cell lysate

[12] = target: T12, HEK293 cell lysates (proteome-wide targets of probe 9) (Homo sapiens, UniProt P11021); settings: protein HSPA5
T12 construct: endogenous in cells; host or cells: HEK293 cell lysate

[13] = target: T13, HEK293 cell lysates (proteome-wide targets of probe 9) (Homo sapiens, UniProt P22626); settings: protein HNRNPA2B1;HNRPA2B1
T13 construct: endogenous in cells; host or cells: HEK293 cell lysate

[14] = target: T14, HEK293 cell lysates (proteome-wide targets of probe 9) (Homo sapiens, UniProt P09651); settings: protein HNRNPA1
T14 construct: endogenous in cells; host or cells: HEK293 cell lysate

[15] = target: T15, HEK293 cell lysates (proteome-wide targets of probe 9) (Homo sapiens, UniProt P37802); settings: protein TAGLN2
T15 construct: endogenous in cells; host or cells: HEK293 cell lysate

[16] = target: T16, HEK293 cell lysates (proteome-wide targets of probe 9) (Homo sapiens, UniProt Q14974); settings: protein KPNB1
T16 construct: endogenous in cells; host or cells: HEK293 cell lysate

[17] = target: T17, HEK293 cell lysates (proteome-wide targets of probe 9) (Homo sapiens, UniProt P10809); settings: protein HSPD1
T17 construct: endogenous in cells; host or cells: HEK293 cell lysate

[18] = target: T18, HEK293 cell lysates (proteome-wide targets of probe 9) (Homo sapiens, UniProt P62826); settings: protein RAN
T18 construct: endogenous in cells; host or cells: HEK293 cell lysate

[19] = target: T19, HEK293 cell lysates (proteome-wide targets of probe 9) (Homo sapiens, UniProt Q04837); settings: protein SSBP1
T19 construct: endogenous in cells; host or cells: HEK293 cell lysate

[20] = target: T20, HEK293 cell lysates (proteome-wide targets of probe 9) (Homo sapiens, UniProt Q8NC51); settings: protein SERBP1
T20 construct: endogenous in cells; host or cells: HEK293 cell lysate

[21] = target: T21, HEK293 cell lysates (proteome-wide targets of probe 9) (Homo sapiens, UniProt P23528); settings: protein CFL1
T21 construct: endogenous in cells; host or cells: HEK293 cell lysate

[22] = target: T22, HEK293 cell lysates (proteome-wide targets of probe 9) (Homo sapiens, UniProt P46781); settings: protein RPS9
T22 construct: endogenous in cells; host or cells: HEK293 cell lysate

[23] = target: T23, HEK293 cell lysates (proteome-wide targets of probe 9) (Homo sapiens, UniProt P04406); settings: protein GAPDH
T23 construct: endogenous in cells; host or cells: HEK293 cell lysate

[24] = target: T24, HEK293 cell lysates (proteome-wide targets of probe 9) (Homo sapiens, UniProt Q15366); settings: protein PCBP2
T24 construct: endogenous in cells; host or cells: HEK293 cell lysate

[25] = target: T25, HEK293 cell lysates (proteome-wide targets of probe 9) (Homo sapiens, UniProt P60842); settings: protein EIF4A1
T25 construct: endogenous in cells; host or cells: HEK293 cell lysate

[26] = target: T26, HEK293 cell lysates (proteome-wide targets of probe 9) (Homo sapiens, UniProt P42704); settings: protein LRPPRC
T26 construct: endogenous in cells; host or cells: HEK293 cell lysate

[27] = target: T27, HEK293 cell lysates (proteome-wide targets of probe 9) (Homo sapiens, UniProt P05387); settings: protein RPLP2
T27 construct: endogenous in cells; host or cells: HEK293 cell lysate

[28] = target: T28, HEK293 cell lysates (proteome-wide targets of probe 9) (Homo sapiens, UniProt P62280); settings: protein RPS11
T28 construct: endogenous in cells; host or cells: HEK293 cell lysate

[29] = target: T29, HEK293 cell lysates (proteome-wide targets of probe 9) (Homo sapiens, UniProt P60866); settings: protein RPS20
T29 construct: endogenous in cells; host or cells: HEK293 cell lysate

[30] = target: T30, HEK293 cell lysates (proteome-wide targets of probe 9) (Homo sapiens, UniProt Q99832); settings: protein CCT7
T30 construct: endogenous in cells; host or cells: HEK293 cell lysate

[31] = target: T31, HEK293 cell lysates (proteome-wide targets of probe 9) (Homo sapiens, UniProt Q08211); settings: protein DHX9
T31 construct: endogenous in cells; host or cells: HEK293 cell lysate

T11 sequence (P53396 whole entry): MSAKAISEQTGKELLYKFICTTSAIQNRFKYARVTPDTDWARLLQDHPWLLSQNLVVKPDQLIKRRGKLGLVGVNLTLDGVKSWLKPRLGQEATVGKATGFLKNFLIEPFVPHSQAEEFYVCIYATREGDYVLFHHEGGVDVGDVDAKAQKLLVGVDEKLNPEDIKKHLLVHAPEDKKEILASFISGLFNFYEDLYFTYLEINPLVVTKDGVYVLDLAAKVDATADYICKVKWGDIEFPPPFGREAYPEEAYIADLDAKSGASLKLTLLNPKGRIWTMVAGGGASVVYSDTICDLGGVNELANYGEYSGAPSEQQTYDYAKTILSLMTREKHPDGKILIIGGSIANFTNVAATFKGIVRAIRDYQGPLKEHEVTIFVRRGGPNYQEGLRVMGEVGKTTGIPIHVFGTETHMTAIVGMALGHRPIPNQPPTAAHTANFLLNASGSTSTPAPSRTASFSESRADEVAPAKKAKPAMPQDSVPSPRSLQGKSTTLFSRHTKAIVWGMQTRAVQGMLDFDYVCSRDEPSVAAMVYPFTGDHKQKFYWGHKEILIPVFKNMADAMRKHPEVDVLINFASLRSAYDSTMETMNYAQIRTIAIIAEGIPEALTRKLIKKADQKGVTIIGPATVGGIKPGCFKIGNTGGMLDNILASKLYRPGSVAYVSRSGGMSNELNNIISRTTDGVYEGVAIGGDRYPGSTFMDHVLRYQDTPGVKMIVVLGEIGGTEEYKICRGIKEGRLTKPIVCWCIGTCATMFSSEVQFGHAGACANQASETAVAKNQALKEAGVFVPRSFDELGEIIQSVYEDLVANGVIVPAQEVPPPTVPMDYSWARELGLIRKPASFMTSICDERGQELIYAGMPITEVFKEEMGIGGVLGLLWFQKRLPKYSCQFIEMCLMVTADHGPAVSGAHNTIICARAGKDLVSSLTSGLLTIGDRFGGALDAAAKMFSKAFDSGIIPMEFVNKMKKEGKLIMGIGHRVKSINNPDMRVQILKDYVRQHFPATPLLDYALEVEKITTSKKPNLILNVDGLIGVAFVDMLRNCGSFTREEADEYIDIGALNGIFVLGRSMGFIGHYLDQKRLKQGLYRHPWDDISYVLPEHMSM
T15 sequence (P37802 whole entry): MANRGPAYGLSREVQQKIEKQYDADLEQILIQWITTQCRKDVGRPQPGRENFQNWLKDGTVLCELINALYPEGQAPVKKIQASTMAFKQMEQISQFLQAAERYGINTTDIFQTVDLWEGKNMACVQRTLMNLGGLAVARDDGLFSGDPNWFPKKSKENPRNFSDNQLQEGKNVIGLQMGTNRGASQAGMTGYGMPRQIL
T20 sequence (Q8NC51 whole entry): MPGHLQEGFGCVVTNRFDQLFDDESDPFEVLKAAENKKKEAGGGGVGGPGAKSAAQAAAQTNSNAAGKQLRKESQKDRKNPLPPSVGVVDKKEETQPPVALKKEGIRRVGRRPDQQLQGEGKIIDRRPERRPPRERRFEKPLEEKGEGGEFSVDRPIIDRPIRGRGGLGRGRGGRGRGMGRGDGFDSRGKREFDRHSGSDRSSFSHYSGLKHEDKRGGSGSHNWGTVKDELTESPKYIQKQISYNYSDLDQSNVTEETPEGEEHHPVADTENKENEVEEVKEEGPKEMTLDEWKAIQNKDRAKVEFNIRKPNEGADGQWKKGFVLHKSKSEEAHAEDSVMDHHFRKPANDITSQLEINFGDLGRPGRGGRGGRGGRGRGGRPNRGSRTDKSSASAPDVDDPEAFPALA
T5 sequence (P07814 whole entry): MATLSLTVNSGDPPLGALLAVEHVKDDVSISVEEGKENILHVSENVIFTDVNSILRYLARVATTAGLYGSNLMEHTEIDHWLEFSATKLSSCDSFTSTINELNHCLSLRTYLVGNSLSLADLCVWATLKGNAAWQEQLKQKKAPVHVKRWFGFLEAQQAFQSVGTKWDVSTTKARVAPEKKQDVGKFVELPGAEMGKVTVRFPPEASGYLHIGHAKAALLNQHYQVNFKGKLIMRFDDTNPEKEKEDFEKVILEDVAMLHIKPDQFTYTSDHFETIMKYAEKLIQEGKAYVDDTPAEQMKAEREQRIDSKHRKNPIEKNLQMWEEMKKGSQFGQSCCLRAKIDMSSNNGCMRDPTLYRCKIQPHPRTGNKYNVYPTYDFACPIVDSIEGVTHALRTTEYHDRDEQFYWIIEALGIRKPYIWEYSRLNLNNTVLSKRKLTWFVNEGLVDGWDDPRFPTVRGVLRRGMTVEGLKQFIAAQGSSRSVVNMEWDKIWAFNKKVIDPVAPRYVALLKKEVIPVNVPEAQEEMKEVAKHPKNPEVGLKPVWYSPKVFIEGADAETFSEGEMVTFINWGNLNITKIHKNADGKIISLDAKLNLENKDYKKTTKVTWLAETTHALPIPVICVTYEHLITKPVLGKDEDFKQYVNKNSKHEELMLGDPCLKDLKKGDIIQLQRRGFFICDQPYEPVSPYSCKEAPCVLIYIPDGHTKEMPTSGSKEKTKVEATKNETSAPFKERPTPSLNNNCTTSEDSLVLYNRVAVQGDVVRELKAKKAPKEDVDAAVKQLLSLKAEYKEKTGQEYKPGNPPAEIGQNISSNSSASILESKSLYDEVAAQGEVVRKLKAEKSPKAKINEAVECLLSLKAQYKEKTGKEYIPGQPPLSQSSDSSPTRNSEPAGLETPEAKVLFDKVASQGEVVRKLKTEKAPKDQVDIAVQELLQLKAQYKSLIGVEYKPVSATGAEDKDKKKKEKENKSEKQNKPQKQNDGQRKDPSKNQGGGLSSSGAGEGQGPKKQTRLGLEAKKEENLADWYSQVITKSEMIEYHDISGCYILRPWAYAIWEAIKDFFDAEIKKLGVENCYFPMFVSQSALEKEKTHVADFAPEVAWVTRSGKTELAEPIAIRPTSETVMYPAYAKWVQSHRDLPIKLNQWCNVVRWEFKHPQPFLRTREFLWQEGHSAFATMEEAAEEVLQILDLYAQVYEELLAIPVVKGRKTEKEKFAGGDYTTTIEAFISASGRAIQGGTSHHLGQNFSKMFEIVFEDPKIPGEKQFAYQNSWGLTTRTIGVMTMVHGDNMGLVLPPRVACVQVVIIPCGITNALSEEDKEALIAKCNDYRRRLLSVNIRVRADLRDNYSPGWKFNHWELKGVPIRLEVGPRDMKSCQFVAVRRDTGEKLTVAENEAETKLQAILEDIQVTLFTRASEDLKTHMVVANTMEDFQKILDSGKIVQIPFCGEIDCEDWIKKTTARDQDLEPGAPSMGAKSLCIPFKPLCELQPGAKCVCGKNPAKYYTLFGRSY
T21 sequence (P23528 whole entry): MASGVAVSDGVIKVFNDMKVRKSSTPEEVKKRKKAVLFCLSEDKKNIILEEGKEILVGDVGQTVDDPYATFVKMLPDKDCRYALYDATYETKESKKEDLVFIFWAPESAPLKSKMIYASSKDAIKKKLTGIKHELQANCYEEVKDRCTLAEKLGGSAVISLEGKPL
T3 sequence (P10599 whole entry): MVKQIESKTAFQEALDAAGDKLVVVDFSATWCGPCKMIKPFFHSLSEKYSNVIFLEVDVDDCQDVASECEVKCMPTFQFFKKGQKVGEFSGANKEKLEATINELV
T25 sequence (P60842 whole entry): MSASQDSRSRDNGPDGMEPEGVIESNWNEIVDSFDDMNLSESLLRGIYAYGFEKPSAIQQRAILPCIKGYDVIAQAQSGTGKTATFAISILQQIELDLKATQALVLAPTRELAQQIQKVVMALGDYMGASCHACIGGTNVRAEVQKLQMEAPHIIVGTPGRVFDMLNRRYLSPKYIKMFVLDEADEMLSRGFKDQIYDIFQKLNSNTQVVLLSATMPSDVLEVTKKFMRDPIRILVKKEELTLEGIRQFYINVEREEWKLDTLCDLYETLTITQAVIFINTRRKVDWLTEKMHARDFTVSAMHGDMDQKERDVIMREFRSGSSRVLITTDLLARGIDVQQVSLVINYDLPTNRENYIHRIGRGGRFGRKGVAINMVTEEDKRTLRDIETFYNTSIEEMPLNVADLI
T17 sequence (P10809 27-573): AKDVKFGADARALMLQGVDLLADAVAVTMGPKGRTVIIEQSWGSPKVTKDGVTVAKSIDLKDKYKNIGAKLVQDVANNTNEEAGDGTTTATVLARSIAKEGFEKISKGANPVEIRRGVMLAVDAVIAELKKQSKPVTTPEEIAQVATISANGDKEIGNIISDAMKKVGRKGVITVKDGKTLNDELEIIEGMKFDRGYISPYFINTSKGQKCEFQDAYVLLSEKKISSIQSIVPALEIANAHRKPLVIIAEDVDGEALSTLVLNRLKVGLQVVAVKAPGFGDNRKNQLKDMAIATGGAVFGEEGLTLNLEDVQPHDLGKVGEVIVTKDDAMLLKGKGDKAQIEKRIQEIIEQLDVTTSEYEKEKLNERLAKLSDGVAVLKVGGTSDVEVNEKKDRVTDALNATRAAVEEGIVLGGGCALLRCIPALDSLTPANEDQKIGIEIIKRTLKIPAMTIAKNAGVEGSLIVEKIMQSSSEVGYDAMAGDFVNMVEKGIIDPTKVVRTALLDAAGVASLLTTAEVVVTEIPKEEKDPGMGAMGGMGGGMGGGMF
T19 sequence (Q04837 17-148): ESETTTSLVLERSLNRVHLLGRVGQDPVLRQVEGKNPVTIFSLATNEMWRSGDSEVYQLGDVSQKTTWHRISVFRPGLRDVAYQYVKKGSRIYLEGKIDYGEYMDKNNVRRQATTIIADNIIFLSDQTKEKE
T24 sequence (Q15366 whole entry): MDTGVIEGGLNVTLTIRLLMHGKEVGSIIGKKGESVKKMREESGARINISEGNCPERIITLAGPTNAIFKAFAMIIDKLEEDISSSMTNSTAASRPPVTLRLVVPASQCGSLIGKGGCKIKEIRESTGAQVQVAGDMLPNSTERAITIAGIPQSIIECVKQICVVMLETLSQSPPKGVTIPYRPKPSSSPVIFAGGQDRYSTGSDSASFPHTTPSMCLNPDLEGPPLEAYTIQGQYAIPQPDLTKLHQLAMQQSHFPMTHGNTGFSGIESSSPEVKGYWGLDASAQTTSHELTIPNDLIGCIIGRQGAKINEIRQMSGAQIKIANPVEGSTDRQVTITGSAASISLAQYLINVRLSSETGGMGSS

Structure (SMILES): C#CCCCP(=O)(OCC)N1CCCC(N)C1=O.O=C(O)C(F)(F)F (mixture of isomers) [Compound 9]
- Log2-fold change (9/DMSO) [1]: -0.3893
- Log2-fold change (9/DMSO) [2]: 0.5182
- Log2-fold change (9/DMSO) [3]: 1.146
- Log2-fold change (9/DMSO) [4]: 1.078
- Log2-fold change (9/DMSO) [5]: 0.7172
- Log2-fold change (9/DMSO) [6]: -0.05307
- Log2-fold change (9/DMSO) [7]: -0.3682
- Log2-fold change (9/DMSO) [8]: 1.662
- Log2-fold change (9/DMSO) [9]: 0.2647
- Log2-fold change (9/DMSO) [10]: 0.4327
- Log2-fold change (9/DMSO) [11]: 0.4032
- Log2-fold change (9/DMSO) [12]: -0.3942
- Log2-fold change (9/DMSO) [13]: -0.2704
- Log2-fold change (9/DMSO) [14]: 0.5741
- Log2-fold change (9/DMSO) [15]: 0.4985
- Log2-fold change (9/DMSO) [16]: 1.065
- Log2-fold change (9/DMSO) [17]: -1.284
- Log2-fold change (9/DMSO) [18]: 0.5658
- Log2-fold change (9/DMSO) [19]: -1.05
- Log2-fold change (9/DMSO) [20]: -0.5195
- Log2-fold change (9/DMSO) [21]: 0.4225
- Log2-fold change (9/DMSO) [22]: 0.8119
- Log2-fold change (9/DMSO) [23]: -0.2878
- Log2-fold change (9/DMSO) [24]: 1.083
- Log2-fold change (9/DMSO) [25]: 0.03837
- Log2-fold change (9/DMSO) [26]: 0.5243
- Log2-fold change (9/DMSO) [27]: 0.606
- Log2-fold change (9/DMSO) [28]: -0.5072
- Log2-fold change (9/DMSO) [29]: 0.9458
- Log2-fold change (9/DMSO) [30]: -0.08905
- Log2-fold change (9/DMSO) [31]: -0.5054

Structure (SMILES): CCCCCc1ccc(SCCP(=O)(OCC)N2CCC[C@H](N)C2=O)cc1.O=C(O)C(F)(F)F (some centres unmarked) [Compound 16]
- Log2-fold change (16/9) [1]: 1.34
- Log2-fold change (16/9) [2]: -0.4211
- Log2-fold change (16/9) [3]: -0.6696
- Log2-fold change (16/9) [4]: -1.02
- Log2-fold change (16/9) [5]: -0.09528
- Log2-fold change (16/9) [6]: 0.07234
- Log2-fold change (16/9) [7]: 0.00104
- Log2-fold change (16/9) [8]: -0.4231
- Log2-fold change (16/9) [9]: 0.4135
- Log2-fold change (16/9) [10]: -0.1709
- Log2-fold change (16/9) [11]: -0.4196
- Log2-fold change (16/9) [12]: 0.6165
- Log2-fold change (16/9) [13]: -0.7288
- Log2-fold change (16/9) [14]: -1.553
- Log2-fold change (16/9) [15]: -0.3112
- Log2-fold change (16/9) [16]: -1.716
- Log2-fold change (16/9) [17]: 0.04221
- Log2-fold change (16/9) [18]: -1.91
- Log2-fold change (16/9) [19]: -1.78
- Log2-fold change (16/9) [20]: -1.208
- Log2-fold change (16/9) [21]: -0.1396
- Log2-fold change (16/9) [22]: 0.2438
- Log2-fold change (16/9) [23]: 0.4935
- Log2-fold change (16/9) [24]: -0.4376
- Log2-fold change (16/9) [25]: -1.788
- Log2-fold change (16/9) [26]: -0.09939
- Log2-fold change (16/9) [27]: -0.0326
- Log2-fold change (16/9) [28]: 0.1367
- Log2-fold change (16/9) [29]: -0.8733
- Log2-fold change (16/9) [30]: -1.548
- Log2-fold change (16/9) [31]: -0.1923
